Experimental data: patent US5169863A, “Hypersphyxia-causing methods” (K.K. Ueno Seiyaku Oyo Kenkyujo, priority 1988, dated 1992)

Tests used:
[1] = progressing a breath (change rate of breath rate); format: in vivo, Wister male rats; settings: tail vein, rats; for change in vivo at 1 mg/kg: Rattus norvegicus, iv
Protocol: Wister male rats (8 weeks old) were applied to anesthesia by intraperitoneal administration with 1.25 g/kg of urethane. A pick-up for breath was fixed on a top of a rat's nose, and the breath curve was recorded on a polygraph while the breath rate was counted with a tachometer.
Each test compound was dissolved in ethanol and administered to rats through a tale vein in 1 mg/kg as diluted with Ringer's solution just before use. The maximum concentration of ethanol was 2 percent. Ringers solution containing ethanol but not containing test compound was administered at every experiment as a control. The change rates (%) of the breath rate before and after administration were determined, and evaluated as progressing activity of breath.

[2] = changing rate of blood pressure and heart rate by intravenous injection in anesthetized rats; format: in vivo, Wister male rats; settings: for blood pressure effect (in words): Example 1 conclusion; for change in vivo at 1 mg/kg: Rattus norvegicus
Protocol: (blood pressure, heart rate increasing action by intravenous injection) Wister male rats (8 weeks old) were used as test animals. The rats were applied to anesthesia by intraperitoneal administration with 1.25 g/kg of urethane. The blood pressure was determined by inserting a polyethylene tube into a femoral artery, which was connected with a pressure transducer. The heart rate was determined from R wave of electrocardiograms (ECG) induced by standard limb lead II with a tachometer. Each test compound was dissolved in ethanol and intravenously administered to rats in 1 mg/kg diluted with Ringer's solution just before use. The maximum concentration of ethanol was 2 percent. An ethanol-containing Ringer without any test compound was used as a control to confirm the influence of the ethanol in each experiment. Each changing rate (%) in the blood pressure and heart rate before and after administration was determined, and the average of 3-4 experiments was shown in Table 1. Changing rates of blood pressure and heart rate were determined in the same manner as described in Example 1 except that the test compounds 60, 61 and 62 were used in different concentrations instead of the test compounds 1-55.

[3] = 1 (mg/kg), Table 1, read-out: changing rate of blood pressure
[4] = 1 (mg/kg), Table 1, read-out: changing rate of heart rate

| SMILES | change in vivo at 1 mg/kg [1] [%] | change in vivo at 1 mg/kg [2, 3] [%] | change in vivo at 1 mg/kg [2, 4] [%] | other results |
| --- | --- | --- | --- | --- |
| CCCCCC(=O)CC[C@H]1[C@H](O)CC(=O)[C@@H]1C/C=C\CCCC(=O)O [Compound 20, 13,14-dihydro-15-keto-PGE2, reference compound] | 12 | -15 | 0 | blood pressure effect (in words) [2]: blood pressure decreasing effect |
| CCCCCC(=O)CC[C@H]1[C@H](O)CC(=O)[C@@H]1C/C=C\CCCC(=O)OCCC [Compound 23, 13,14-dihydro-15-keto-PGE2 n-propyl ester] | 37 | 5 | 4 |  |
| CCCCCC(=O)CC[C@H]1[C@H](O)CC(=O)[C@@H]1C/C=C\CCCC(=O)OCCCC [Compound 24, 13,14-dihydro-15-keto-PGE2 n-butyl ester] | 41 | 5 | 5 |  |
| CCCCCC(=O)CC[C@H]1[C@H](O)CC(=O)[C@@H]1C/C=C\CCCC(=O)OCc1ccccc1 [Compound 25, 13,14-dihydro-15-keto-PGE2 benzyl ester] | 22 | 2 | 5 |  |
| CCCCCC(=O)CC[C@H]1[C@H](O)CC(=O)[C@@H]1C/C=C\CCCC(=O)OCCO [Compound 26, 13,14-dihydro-15-keto-PGE2 hydroxyethyl ester] |  |  |  | progressing activity % of breath ([1]; 1 mg/kg): +22%; changing rate of blood pressure ([2]; 0.2, Table 1): 0%; changing rate of heart rate ([2]; 0.2, Table 1): 0%; changing rate of blood pressure ([2]; 0.5, Table 1): 0%; changing rate of heart rate ([2]; 0.5, Table 1): 0%; changing rate of blood pressure ([2]; 1 (mg/kg), Table 1): +2%; changing rate of heart rate ([2]; 1 (mg/kg), Table 1): +7% |
| CCCCCC(=O)CC[C@H]1[C@H](O)CC(=O)[C@@H]1C/C=C\CC=CC(=O)OC [Compound 27, 13,14-dihydro-15-keto-Δ^2 -PGE2-methyl ester] | 11 | 6 | 21 |  |
| CCCCCC(=O)CC[C@H]1[C@H](O)CC(=O)[C@@H]1C/C=C\CC(C)CC(=O)OC (stereo partly shown) [Compound 28, 13,14-dihydro-15-keto-3R,S-methyl-PGE2 methyl ester] | 40 | 12 | 33 |  |
| CCCCCC(=O)CC[C@H]1[C@H](O)CC(=O)[C@@H]1C/C=C\CC(C)CC(=O)OCC (stereo partly shown) [Compound 29, 13,14-dihydro-15-keto-3R,S-methyl-PGE2 ethyl ester] | 11 | 7 | 17 |  |
| CCCCC(C)C(=O)CC[C@H]1[C@H](O)CC(=O)[C@@H]1C/C=C\CCCC(=O)OC (stereo partly shown) [Compound 30, 13,14-dihydro-15-keto-16R,S-methyl-PGE2 methyl ester] | 61 | 14 | 29 |  |
| CCCCC(C)C(=O)CC[C@H]1[C@H](O)CC(=O)[C@@H]1C/C=C\CCCC(=O)OCC (stereo partly shown) [Compound 31, 13,14-dihydro-15-keto-16R,S-methyl-PGE2 ethyl ester] | 40 | 14 | 46 |  |
| CCCCC(C)C(=O)CC[C@H]1[C@H](O)CC(=O)[C@@H]1C/C=C\CC(C)CC(=O)OC (stereo partly shown) [Compound 32, 13,14-dihydro-15-keto-3R,S-16R,S-dimethyl-PGE2 methyl ester] | 41 | 14 | 30 |  |
| CCCCC(C)(C)C(=O)CC[C@H]1[C@H](O)CC(=O)[C@@H]1C/C=C\CCCC(=O)OC [Compound 33, 13,14-dihydro-15-keto-16,16-dimethyl-PGE2 methyl ester] | 40 | 20 | 28 |  |
| CCCCC(C)(C)C(=O)CC[C@H]1[C@H](O)CC(=O)[C@@H]1C/C=C\CCCC(=O)OCC [Compound 34, 13,14-dihydro-15-keto-16,16-dimethyl-PGE2 ethyl ester] | 31 | 6 | 29 |  |
| CCCCC(O)C(=O)CC[C@H]1[C@H](O)CC(=O)[C@@H]1C/C=C\CCCC(=O)OCC (stereo partly shown) [Compound 35, 13,14-dihydro-15-keto-16R,S-hydroxy-PGE2 ethyl ester] | 37 | 17 | 27 |  |
| CCCCC(F)C(=O)CC[C@H]1[C@H](O)CC(=O)[C@@H]1C/C=C\CCCC(=O)OCC (stereo partly shown) [Compound 38, 13,14-dihydro-15-keto-16R,S-fluoro-PGE2 ethyl ester] | 47 | 14 | 15 |  |
| CCCCC(F)C(=O)CC[C@H]1[C@H](C)CC(=O)[C@@H]1C/C=C\CCCC(=O)OCC (stereo partly drawn) [Compound 40, 13,14-dihydro-15-keto-16R,S-fluoro-11-dehydroxy-11R-methyl-PGE2 ethyl ester] | 16 | 17 | 27 |  |
| CCCCCC(=O)CC[C@H]1[C@H](C)CC(=O)[C@@H]1C/C=C\CCCC(=O)OCC [Compound 41, 13,14-dihydro-15-keto-11-dehydroxy-11R-methylPGE2 ethyl ester] | 20 | 11 | 26 |  |
| CCC[C@H](C)CC(=O)CC[C@H]1[C@H](O)CC(=O)[C@@H]1C/C=C\CCCC(=O)OC [Compound 42, 13,14-dihydro-15-keto-17S-methyl-PGE2 methyl ester] | 28 | 12 | 7 |  |
| COC(=O)CCC/C=C\C[C@H]1C(=O)C[C@@H](O)[C@@H]1CCC(=O)CCCC(C)C [Compound 43, 13,14-dihydro-15-keto-19-methyl-PGE2 methyl ester] | 41 | 14 | 45 |  |
| CCOC(=O)CCC/C=C\C[C@H]1C(=O)C[C@@H](O)[C@@H]1CCC(=O)CCCC(C)C [Compound 44, 13,14-dihydro-15-keto-19-methyl-PGE2 ethyl ester] | 16 | 20 | 30 |  |
| COCCCCCC(=O)CC[C@H]1[C@H](O)CC(=O)[C@@H]1C/C=C\CCCC(=O)OC [Compound 45, 13,14-dihydro-15-keto-20-methoxy-PGE2 methyl ester] | 10 | 2 | 4 |  |
| COCCCCCC(=O)CC[C@H]1[C@H](O)CC(=O)[C@@H]1C/C=C\CC=CC(=O)OC [Compound 46, 13,14-dihydro-15-keto-20-methoxy-Δ^2 -PGE2 methyl ester] | 10 | 5 | 13 |  |
| COCCCCCC(=O)CC[C@H]1[C@H](O)CC(=O)[C@@H]1C/C=C\CC(C)CC(=O)OC (stereo partly shown) [Compound 47, 13,14-dihydro-15-keto-3R,S-methyl-20-methoxy-PGE2 methyl ester] | 17 | 1 | 4 |  |
| CC(C)=CCCCCC(=O)CC[C@H]1[C@H](O)CC(=O)[C@@H]1C/C=C\CCCC(=O)O [Compound 49, 13,14-dihydro-15-keto-20-isopropylidene-PGE2] | 18 | 2 | 3 |  |
| COC(=O)CCC/C=C\C[C@H]1C(=O)C[C@@H](O)[C@@H]1CCC(=O)CCCCC=C(C)C [Compound 50, 13,14-dihydro-15-keto-20-isopropylidene-PGE2 methyl ester] | 18 | 2 | 5 |  |
| CCCCCCCC(=O)CC[C@H]1[C@H](O)CC(=O)[C@@H]1C/C=C\CCCC(=O)OC [Compound 51, 13,14-dihydro-15-keto-20-ethyl-PGE2 methyl ester] | 49 | 1 | 14 |  |
| CCCCC[C@H](O)/C=C/[C@H]1[C@H](O)CC(=O)[C@@H]1C/C=C\CCCC(=O)O [Compound 57, PGE2, reference compound] | 55 | -39 | 14 | blood pressure effect (in words) [2]: blood pressure decreasing effect |
| CCCCC[C@H](O)/C=C/[C@H]1[C@H](O)CC(=O)[C@@H]1C/C=C\CCCC(=O)OC [Compound 58, PGE2 methyl ester, reference compound] | 35 | -11 | 33 | blood pressure effect (in words) [2]: blood pressure decreasing effect |
